Read-outs that look alike come from different tables or passages of the source.
Key:
[1] = target: PI3K-β (Homo sapiens, UniProt P42338); test: Transcreener KINASE Assay, fluorescent determination of PI3K enzyme activity; assay type: biochemical; settings: for inhibition at 1 µM: read-out: PI3K-β IH % (inhibition rate);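 for all read-outs here: recombinant PI3K enzyme reaction, 80 min at room temperature, ADP formed detected by far-red competitive fluorescence polarization immunoassay, inhibition relative to ADP in 2% DMSO control wells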
Protocol: (§1) It is a universal, homogenous, high throughput screening (HTS) technology using a far-red, competitive fluorescence polarization immunoassay based on the detection of ADP to monitor the activity of enzymes that catalyze group transfer reactions. […] The reaction mixture was added into desired wells of a 96-well plate. The plate was sealed and incubated for 80 min at room temperature. • 2) Next, 25 uL ADP detection mix was added into each well. The plate was sealed again and incubated for 60 min at room temperature. Then fluorescence polarization was measured by Tecan Infinite F500 Reader.
(§2) Data was analyzed and IC50 values were generated using the add-in software for Microsoft Excel, Xlfit™ (version 5.3).

[2] = target: PI3K-δ (p110δ/p85α) (Homo sapiens (Human), UniProt O00329); test: as above; assay type: biochemical;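 note: ADP formed by the kinase detected via far-red competitive fluorescence polarization immunoassay after 80 min room-temperature reaction, inhibition relative to 2% DMSO wells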
Protocol: as §1, §2

[3] = test system: AKT phosphorylation (p-AKT Ser473) in Ramos cells; test: Inhibition of AKT phosphorylation in Ramos cell line (anti-IgM stimulated); assay type: cell-based; settings: Homo sapiens, read-out: IC50, inhibition of AKT phosphorylation
Protocol: 6×10^4/mL Ramos cells (ATCC, CRL-1596; cells were cultured in RPMI1640 media with 10% FBS) were seeded into a 96-well plate (Beckman Dickinson, No. 356692) at 80 uL/well, 4,800 cells/well. After incubation for 3 hr at 37° C. under 5% CO2, Ramos cells were treated with 10 uL/well various concentrations of test compound (final concentrations of the test compound: 1 uM, 0.3 uM, 0.1 uM, 0.037 uM, 0.012 uM, 0.0041 uM, 0.0014 uM and 0.0005 uM) or 0.3% DMSO for 30 min, and then were stimulated with 10 uL/well 1 ug/ml Anti-IgM (Jackson Immunoresearch, 709-006-073) for 15-20 min. • 1) Cells were fixed with 100 μL of 4% pre-warmed Paraformaldehyde (2% final concentration), and incubated for 45 min at room temperature. • 2) The paraformaldehyde solution was removed. 100 μL of ice-cold methanol was added into each well and the plate was left at 4° C. for 30 min. • 3) The cells were washed for three times with 160 μL PBS. • 4) 40 μL 1:350 dilution of Rabbit anti-p-AKT(Ser^473) antibody (Cell Signaling Technology, 4060L) in antibody dilution buffer (1% BSA, in PBS) were added into each well. The plate was inculpated overnight at 4° C. • 5) The cells were washed for 3 times with 160 uL PBS. • 6) 45 μL of Goat anti-rabbit IgG Alexa488 antibody (Invitrogen, A11034) at a 1:1,000 dilution in antibody dilution buffer (1% BSA, in PBS) were added into each well. The plate was covered with foil to keep out of light and was incubated for 90 min at room temperature. • 7) The cells were washed for 3 times with 160 uL PBS. • 8) 50 μL of 1.5 μM Propidium Iodide (Sigma: P4170) solution was added into each well to determine cell number (1.5 mM Propidium iodide stock was diluted with 1:1,000 in PBS, and the final concentration was 1.5 μM). • 9) The plate was incubated at room temperature for 30 min and then was sealed with a cover-seal. • 10) The plate was loaded into the Acumen Explorer and scan with the appropriate instrument settings.
as §2

[4] = target: PI3K-γ (p110γ) (Homo sapiens (Human), UniProt P48736); test: Transcreener KINASE Assay, fluorescent determination of PI3K enzyme activity; assay type: biochemical; settings: for inhibition at 1 µM: read-out: PI3K-γ IH % (inhibition rate);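 for all read-outs here: ADP produced by p110γ kinase reaction, 80 min at room temperature, detected by far-red fluorescence polarization immunoassay, inhibition relative to 2% DMSO control wells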
Protocol: as §1, §2

[5] = test system: PI3Kδ signaling in basophils; test: Inhibition of PI3Kδ signaling in basophils from human whole blood; assay type: cell-based; settings: read-out: IC50, inhibition of PI3Kδ signaling in basophils
Protocol: Methods • 1) Heparinized human whole blood was mixed and pipetted into the 96 well v-bottom plate, 100 μL per well. • 2) 10 μL of stimulation buffer (1 mg/mL stock, final concentration of Recombinant human IL-3: 20 ng/mL) was added to the whole blood samples of each well and vortex gently. […] Vortex all the wells once more and incubate for 20 min at 37° C. • 5) Labeling with staining antibody: Degranulation was stopped by incubating the samples on ice for 5 min. 6 μL of staining antibody mixture (anti-CD63-FITC and anti-IgE-PE) was added into each well. Vortex and incubate the wells for 20 min in an ice bath, covered to prevent exposure to light. • 6) The whole blood samples were lysed with 300 uL RBC lysis (pre-warmed to room temperature, 20 to 25° C.). Vortex and incubate the samples for 15 min at room temperature. Spin down cells (5 min, 250×g, 4° C.). The supernatant was aspirated leaving approximately 100 μL in each well. • 7) The blood samples were lysed once more as step 6). • 8) Washing: The samples are washed once with 0.5 mL of washing solution. The plate was centrifuged (5 min, 250×g, 4° C.). The supernatant was aspirated leaving approximately 100 μL in each well. The sample in each well was washed and centrifuged once more as above. • 9) 200 μL of fixing solution (1% papraledehyde in 1% BSA/PBS) was added into each well.
as §2

[6] = target: PI3K-α (p110α/p85α) (Homo sapiens (Human), UniProt P42336); test: Transcreener KINASE Assay, fluorescent determination of PI3K enzyme activity; assay type: biochemical
Protocol: Inhibition rates were calculated as follow: IH %=(ADP amount under 2% DMSO well−ADP amount under test compound well)/ADP amount under 2% DMSO well×100%.

[7] = test system: SU-DHL-6 cells; test: In vitro cell proliferation assay in SU-DHL-6 cell line (CCK-8); assay type: cell-based; settings: Homo sapiens, SU-DHL-6, 72 h
Protocol: Growth inhibition assays were carried out using 10% FBS supplemented media. Cells were seeded at a concentration of 15000 cells/well in a 96 well plate. Test compound dilution at different concentrations (final concentrations of the test compound: 1 uM, 0.3 uM, 0.1 uM, 0.037 uM, 0.012 uM, 0.0041 uM, 0.0014 uM and 0.0005 uM) were added after 24 hours. Growth was assessed using Cell Counting Kit-8 (CCK-8) (Dojindo, Cat#CK04) after the test compound were incubated for 72 h. Absorbance was read at the wave length 450 nm on Multiskan MK3 machine (Thermo).
as §2

[8] = Ramos cells, anti-IgM stimulation
[9] = human whole blood, anti-human IgE stimulation, CD63

Chain of PI3K-δ (p110δ/p85α) (O00329 whole entry, species assumed): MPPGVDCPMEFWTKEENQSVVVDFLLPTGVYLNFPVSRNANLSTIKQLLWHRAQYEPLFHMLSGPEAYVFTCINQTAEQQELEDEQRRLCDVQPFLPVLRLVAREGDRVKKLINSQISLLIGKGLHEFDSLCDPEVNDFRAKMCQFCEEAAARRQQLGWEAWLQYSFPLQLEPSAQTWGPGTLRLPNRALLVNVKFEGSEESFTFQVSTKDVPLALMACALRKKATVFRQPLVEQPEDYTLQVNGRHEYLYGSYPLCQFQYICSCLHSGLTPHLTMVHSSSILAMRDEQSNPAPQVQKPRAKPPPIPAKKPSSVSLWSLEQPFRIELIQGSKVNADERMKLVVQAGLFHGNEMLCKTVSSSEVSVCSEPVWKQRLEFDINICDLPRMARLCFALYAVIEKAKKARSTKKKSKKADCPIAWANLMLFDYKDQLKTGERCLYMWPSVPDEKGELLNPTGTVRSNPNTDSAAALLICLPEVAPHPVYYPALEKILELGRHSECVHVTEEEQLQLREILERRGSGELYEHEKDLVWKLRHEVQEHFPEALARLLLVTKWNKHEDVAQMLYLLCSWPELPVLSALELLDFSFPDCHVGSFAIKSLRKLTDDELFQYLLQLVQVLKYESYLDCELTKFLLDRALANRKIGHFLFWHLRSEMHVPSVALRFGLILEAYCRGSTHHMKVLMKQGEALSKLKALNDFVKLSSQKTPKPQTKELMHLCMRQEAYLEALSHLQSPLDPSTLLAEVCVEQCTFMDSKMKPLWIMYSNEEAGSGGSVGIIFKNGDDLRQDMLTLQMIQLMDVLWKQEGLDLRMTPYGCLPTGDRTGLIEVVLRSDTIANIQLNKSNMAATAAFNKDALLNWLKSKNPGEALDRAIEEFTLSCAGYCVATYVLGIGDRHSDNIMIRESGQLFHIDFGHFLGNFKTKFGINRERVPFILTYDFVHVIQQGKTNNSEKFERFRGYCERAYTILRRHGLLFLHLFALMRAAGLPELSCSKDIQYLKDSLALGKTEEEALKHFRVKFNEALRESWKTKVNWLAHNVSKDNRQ
Chain of PI3K-δ (p110δ/p85α) (P27986 whole entry partner, species assumed): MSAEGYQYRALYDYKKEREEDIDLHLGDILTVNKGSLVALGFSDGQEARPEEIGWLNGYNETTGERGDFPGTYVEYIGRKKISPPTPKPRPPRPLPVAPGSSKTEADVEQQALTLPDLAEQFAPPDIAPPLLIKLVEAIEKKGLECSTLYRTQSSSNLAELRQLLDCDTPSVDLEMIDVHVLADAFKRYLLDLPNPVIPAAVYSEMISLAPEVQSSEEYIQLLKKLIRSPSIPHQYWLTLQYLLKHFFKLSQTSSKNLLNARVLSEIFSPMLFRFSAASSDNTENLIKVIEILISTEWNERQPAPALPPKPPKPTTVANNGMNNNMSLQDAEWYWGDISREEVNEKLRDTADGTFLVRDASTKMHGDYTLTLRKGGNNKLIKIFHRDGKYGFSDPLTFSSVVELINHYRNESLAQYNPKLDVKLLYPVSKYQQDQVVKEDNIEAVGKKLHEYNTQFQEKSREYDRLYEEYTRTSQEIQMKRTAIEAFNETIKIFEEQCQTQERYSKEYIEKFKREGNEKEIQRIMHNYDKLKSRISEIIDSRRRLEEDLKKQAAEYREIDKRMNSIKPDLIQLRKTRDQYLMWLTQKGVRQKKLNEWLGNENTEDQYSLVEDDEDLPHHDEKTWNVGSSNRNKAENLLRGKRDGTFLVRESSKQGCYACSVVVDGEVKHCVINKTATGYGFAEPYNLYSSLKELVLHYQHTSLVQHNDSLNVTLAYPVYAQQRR
Chain of PI3K-β (P42338 whole entry, looked up): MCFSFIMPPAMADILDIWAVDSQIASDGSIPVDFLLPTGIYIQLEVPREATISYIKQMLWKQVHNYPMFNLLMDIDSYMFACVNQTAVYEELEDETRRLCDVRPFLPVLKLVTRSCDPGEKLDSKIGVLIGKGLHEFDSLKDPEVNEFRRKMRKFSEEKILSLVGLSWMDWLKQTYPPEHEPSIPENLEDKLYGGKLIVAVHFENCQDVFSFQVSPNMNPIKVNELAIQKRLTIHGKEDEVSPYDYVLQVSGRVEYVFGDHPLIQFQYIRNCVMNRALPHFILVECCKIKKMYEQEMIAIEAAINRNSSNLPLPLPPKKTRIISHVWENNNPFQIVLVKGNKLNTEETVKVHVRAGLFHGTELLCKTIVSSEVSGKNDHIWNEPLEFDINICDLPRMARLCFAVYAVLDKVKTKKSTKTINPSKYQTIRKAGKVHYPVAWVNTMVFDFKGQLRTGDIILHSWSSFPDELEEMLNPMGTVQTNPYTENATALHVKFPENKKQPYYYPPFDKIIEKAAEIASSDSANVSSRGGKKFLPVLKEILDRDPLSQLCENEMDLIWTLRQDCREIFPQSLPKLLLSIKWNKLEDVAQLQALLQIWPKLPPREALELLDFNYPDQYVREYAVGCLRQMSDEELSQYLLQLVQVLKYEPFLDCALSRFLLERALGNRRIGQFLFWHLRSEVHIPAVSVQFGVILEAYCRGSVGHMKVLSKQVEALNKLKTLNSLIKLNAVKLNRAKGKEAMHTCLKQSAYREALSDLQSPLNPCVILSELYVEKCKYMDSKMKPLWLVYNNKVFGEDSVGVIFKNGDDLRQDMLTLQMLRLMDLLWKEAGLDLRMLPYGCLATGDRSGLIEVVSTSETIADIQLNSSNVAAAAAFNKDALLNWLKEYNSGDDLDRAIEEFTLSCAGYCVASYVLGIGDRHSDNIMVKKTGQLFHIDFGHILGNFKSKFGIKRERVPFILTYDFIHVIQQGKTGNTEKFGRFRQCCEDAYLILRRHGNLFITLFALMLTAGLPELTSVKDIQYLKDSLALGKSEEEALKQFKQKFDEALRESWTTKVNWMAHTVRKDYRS
Chain of PI3K-α (p110α/p85α) (P42336 whole entry, species assumed): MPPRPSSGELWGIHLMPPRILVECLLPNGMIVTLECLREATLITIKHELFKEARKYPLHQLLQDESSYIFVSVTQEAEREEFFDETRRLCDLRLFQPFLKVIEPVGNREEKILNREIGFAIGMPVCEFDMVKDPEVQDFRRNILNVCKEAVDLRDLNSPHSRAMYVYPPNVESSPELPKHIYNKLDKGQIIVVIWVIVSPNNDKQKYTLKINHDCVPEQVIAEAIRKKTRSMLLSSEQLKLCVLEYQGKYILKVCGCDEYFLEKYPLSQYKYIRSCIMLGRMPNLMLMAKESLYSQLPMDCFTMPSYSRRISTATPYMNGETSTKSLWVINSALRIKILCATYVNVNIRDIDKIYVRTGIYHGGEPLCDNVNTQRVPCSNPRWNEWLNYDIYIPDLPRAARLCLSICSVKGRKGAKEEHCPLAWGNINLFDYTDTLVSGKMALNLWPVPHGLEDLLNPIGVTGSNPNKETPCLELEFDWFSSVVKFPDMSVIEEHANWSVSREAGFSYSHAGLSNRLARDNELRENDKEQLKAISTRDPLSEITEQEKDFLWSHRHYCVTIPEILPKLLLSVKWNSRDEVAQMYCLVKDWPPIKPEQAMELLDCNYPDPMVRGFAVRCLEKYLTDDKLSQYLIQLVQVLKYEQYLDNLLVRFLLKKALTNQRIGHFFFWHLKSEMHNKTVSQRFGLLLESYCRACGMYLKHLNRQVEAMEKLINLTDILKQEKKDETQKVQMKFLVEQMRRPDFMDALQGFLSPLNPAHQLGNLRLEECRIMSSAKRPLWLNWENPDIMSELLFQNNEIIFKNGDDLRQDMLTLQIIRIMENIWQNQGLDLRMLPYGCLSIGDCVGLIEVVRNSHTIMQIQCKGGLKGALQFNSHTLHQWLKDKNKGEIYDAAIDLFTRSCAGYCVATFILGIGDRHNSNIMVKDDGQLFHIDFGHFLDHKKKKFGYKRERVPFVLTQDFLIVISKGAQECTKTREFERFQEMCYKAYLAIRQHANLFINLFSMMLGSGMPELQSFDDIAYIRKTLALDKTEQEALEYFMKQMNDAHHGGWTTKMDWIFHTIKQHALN
Chain of PI3K-α (p110α/p85α) (P27986 whole entry partner, species assumed): as the sequence (P27986 whole entry partner, species assumed) above
Chain of PI3K-γ (p110γ) (P48736 whole entry, species assumed): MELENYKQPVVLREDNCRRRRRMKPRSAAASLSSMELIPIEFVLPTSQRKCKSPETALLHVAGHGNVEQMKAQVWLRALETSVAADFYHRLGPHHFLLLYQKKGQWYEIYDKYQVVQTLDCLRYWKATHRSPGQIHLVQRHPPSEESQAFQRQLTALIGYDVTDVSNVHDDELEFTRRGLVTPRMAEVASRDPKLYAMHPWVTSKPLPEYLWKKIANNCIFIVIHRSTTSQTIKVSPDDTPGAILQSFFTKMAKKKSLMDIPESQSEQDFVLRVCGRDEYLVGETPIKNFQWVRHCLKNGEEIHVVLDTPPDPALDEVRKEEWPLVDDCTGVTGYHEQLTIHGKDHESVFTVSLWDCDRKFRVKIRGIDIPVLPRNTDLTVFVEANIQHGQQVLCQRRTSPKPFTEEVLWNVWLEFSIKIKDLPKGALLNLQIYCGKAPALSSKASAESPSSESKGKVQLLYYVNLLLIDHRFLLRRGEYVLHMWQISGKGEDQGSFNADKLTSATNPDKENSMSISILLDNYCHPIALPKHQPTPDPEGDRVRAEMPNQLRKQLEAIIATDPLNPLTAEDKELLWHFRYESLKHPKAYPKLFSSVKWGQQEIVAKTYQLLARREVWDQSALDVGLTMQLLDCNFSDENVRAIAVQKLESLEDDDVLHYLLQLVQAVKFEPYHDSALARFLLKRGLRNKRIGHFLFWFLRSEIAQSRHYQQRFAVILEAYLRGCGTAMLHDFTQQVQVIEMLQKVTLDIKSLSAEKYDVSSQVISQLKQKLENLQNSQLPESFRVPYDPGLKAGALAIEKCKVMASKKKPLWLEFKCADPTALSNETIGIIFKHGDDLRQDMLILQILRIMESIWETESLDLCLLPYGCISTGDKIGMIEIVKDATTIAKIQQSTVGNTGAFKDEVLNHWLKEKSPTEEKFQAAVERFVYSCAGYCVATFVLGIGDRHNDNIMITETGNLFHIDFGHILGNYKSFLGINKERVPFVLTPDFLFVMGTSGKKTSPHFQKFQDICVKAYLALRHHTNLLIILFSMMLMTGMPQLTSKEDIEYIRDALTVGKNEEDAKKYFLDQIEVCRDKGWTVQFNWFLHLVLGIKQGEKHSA

Compound | inhibition at 1 µM ([1]; at 1 μM) | IC50 [2] | IC50 [3, 8] | IC50 [5, 9] | IC50 [1] | IC50 [4] | also measured
C[C@H](Nc1ncnc(N)c1C#N)c1cc2ncc(Cl)n2nc1-c1ccc2scnc2c1 [Compound 74] | 49.4% | 9 nM | 23 nM |  |  |  | inhibition at 1 µM ([4]; at 1 μM): 40.8%
Cc1nc2cc([C@H](C)Nc3ncnc(N)c3C#N)c(-c3ccccc3)nn2c1Cl [Compound 59] |  | 5 nM | 6 nM | 100 nM | 1160 nM | 2390 nM | 
C[C@H](Nc1ncnc(N)c1Cl)c1cc2ncc(Cl)n2nc1-c1ccccc1 [Compound 40] |  | 2 nM | 3 nM |  | 277 nM | > 333 nM | 
Cc1cccc(-c2nn3c(Cl)cnc3cc2[C@H](C)Nc2ncnc(N)c2C#N)c1 [Compound 62] |  | 2 nM | 1 nM | 15 nM | 1230 nM | 247 nM | 
C[C@H](Nc1ncnc(N)c1-c1nn[nH]n1)c1cc2ncc(Cl)n2nc1-c1ccccc1 [Compound 21, (S)—N^4-(1-(3-chloro-6-phenylimidazo[1,2-b]pyridazin-7-yl)ethyl)-5-(2H-tetrazol-5-yl)pyrimidine-4,6-diamine] |  | 6 nM |  |  |  | 424 nM | inhibition at 1 µM ([6]; at 1 μM, read-out: PI3K-α IH % (inhibition rate)): 21.7%
Cc1ccccc1-c1nn2c(Cl)cnc2cc1[C@H](C)Nc1ncnc(N)c1C#N [Compound 31, (S)-4-amino-6-((1-(3-chloro-6-(o-tolyl)imidazo[1,2-b]pyridazin-7-yl)ethyl)amino)pyrimidine-5-carbonitrile] |  | 4 nM | 2 nM |  | 371 nM | 146 nM | 
C[C@H](Nc1ncnc(N)c1C#N)c1cc2ncc(Cl)n2nc1-c1ccccc1S(C)(=O)=O [Compound 68] |  | 2 nM | 1 nM | 2 nM | 963 nM | 345 nM | 
C[C@H](Nc1ncnc(N)c1C#N)c1cc2ncc(Cl)n2nc1-c1cccc(F)c1F [Compound 36] |  | 3 nM | 1 nM |  | 1310 nM | 243 nM | 
C[C@@H](c1cc2ncc(Cl)n2nc1-c1ccccc1)n1ccc2c(N)ncnc21 [Compound 27, (S)-7-(1-(3-chloro-6-phenylimidazo[1,2-b]pyridazin-7-yl)ethyl)-7H-pyrrolo[2,3-d]pyrimidin-4-amine] | 9.5% | 25 nM |  | 565 nM |  |  | inhibition at 1 µM ([4]; at 1 μM): 24.9%
C[C@H](Nc1ncnc(N)c1C#N)c1cc2ncc(Cl)n2nc1-c1cccnc1 [Compound 77] |  | 2 nM | 3 nM |  | 238 nM | 436 nM | 
CCC(Nc1ncnc2[nH]cnc12)c1cc2ncc(Cl)n2nc1-c1ccccc1F (single isomer, unassigned) [Compound 25] |  |  | 5 nM | 37 nM |  |  | PI3K-β IH % (inhibition rate) ([1]; at 1 μM): 22.8%; IC50 [7]: 32 nM
C[C@H](Nc1ncnc(N)c1C#N)c1cc2ncc(Cl)n2nc1-c1ccc2cccnc2c1 [Compound 61] | 24.4% | 7 nM | 41 nM | 109 nM |  |  | inhibition at 1 µM ([4]; at 1 μM): 26.5%
C[C@H](Nc1ncnc(N)c1C#N)c1cc2ncc(Cl)n2nc1-c1cc(F)cc(Cl)c1 [Compound 66] |  | 9 nM | 2 nM | 262 nM | 4300 nM | 1120 nM | 
C[C@H](Nc1ncnc(N)c1C#N)c1cc2ncc(Cl)n2nc1-c1cccc(Cl)c1 [Compound 41] |  | 3 nM | 12 nM | 18 nM | 1330 nM | 499 nM | 
C[C@H](Nc1ncnc2[nH]cnc12)c1cc2ncc(Cl)n2nc1-c1cccc(F)c1 [Compound 16] | 27.5% | 3 nM |  |  |  | 326 nM | IC50 [6]: > 1000 nM
Cc1nc(N)c(C#N)c(N[C@@H](C)c2cc3ncc(Cl)n3nc2-c2ccccc2)n1 [Compound 32] | 23.8% | 15 nM | 20 nM |  |  | 243 nM | 
C[C@H](Nc1ncnc(N)c1C#N)c1cc2ncc(Cl)n2nc1-c1cc(F)ccc1F [Compound 35] | 67.6% | 4 nM | 13 nM |  |  |  | inhibition at 1 µM ([4]; at 1 μM): 64.6%
CC(Nc1ncnc(N)c1C#N)c1cc2ncc(Cl)n2nc1-c1ccccc1 (racemic) [Compound 2, 4-amino-6-((1-(3-chloro-6-phenylimidazo[1,2-b]pyridazin-7-yl)ethyl)amino)pyrimidine-5-carbonitrile] |  |  |  |  |  |  | IC50 [6]: > 1000 nM
C[C@H](Nc1ncnc(N)c1C#N)c1cc2ncc(Cl)n2nc1-c1cccc(C#N)c1 [Compound 65] |  | 2 nM | 2 nM | 14 nM | 1260 nM | 611 nM | 
Cc1cc(F)cc(-c2nn3c(Cl)cnc3cc2[C@H](C)Nc2ncnc(N)c2C#N)c1 [Compound 67] |  | 5 nM | 3 nM | 10 nM | 3580 nM | 1140 nM | 
CCC(Nc1ncnc(N)c1C#N)c1cc2ncc(Cl)n2nc1-c1ccccn1 (stereo not shown) [Compound 29] |  | 3 nM |  |  | 174 nM |  | IC50 [7]: 11 nM; PI3K-γ IH % (inhibition rate) ([4]; at 1 μM): 35%
C[C@H](Nc1ncnc(N)c1C(N)=O)c1cc2ncc(Cl)n2nc1-c1ccccc1 [Compound 53, (S)-4-amino-6-((1-(3-chloro-6-phenylimidazo[1,2-b]pyridazin-7-yl)ethyl)amino)pyrimidine-5-carboxamide] | 30.5% |  | 16 nM |  |  |  | inhibition at 1 µM ([4]; at 1 μM): 34.3%
C[C@H](Nc1ncnc(N)c1C#N)c1cc2ncc(Cl)n2nc1-c1cccc(C(F)(F)F)c1 [Compound 48] |  | 9 nM | 8 nM | 41 nM | 4080 nM | 1330 nM | 
CCC(Nc1ncnc(N)c1C#N)c1cc2ncc(Cl)n2nc1-c1cccc(F)c1 (stereo not shown) [Compound 24] | 46.6% | 2 nM | 7 nM | 11 nM |  |  | IC50 [7]: 11 nM; inhibition at 1 µM ([4]; at 1 μM): 44.5%
C[C@H](Nc1ncnc(N)c1C(=O)O)c1cc2ncc(Cl)n2nc1-c1ccccc1 [Compound 52, (S)-4-amino-6-((1-(3-chloro-6-phenylimidazo[1,2-b]pyridazin-7-yl)ethyl)amino)pyrimidine-5-carboxylic acid] | -6.3% | 80 nM |  |  |  |  | inhibition at 1 µM [4]: -26.1%
C[C@H](Nc1ncnc(N)c1C#N)c1cc2ncc(Cl)n2nc1-c1cc(F)cc(F)c1 [Compound 30, (S)-4-amino-6-((1-(3-chloro-6-(3,5-difluorophenyl)imidazo[1,2-b]pyridazin-7-yl)ethyl)amino)pyrimidine-5-carbonitrile] |  | 3 nM |  |  | 1040 nM | 410 nM | IC50 ([5]; Homo sapiens): 6 nM; IC50 ([3]; Ramos): 1 nM
C[C@H](Nc1ncnc(N)c1C#N)c1cc2ncc(Cl)n2nc1-c1cccc(S(C)(=O)=O)c1 [Compound 46] |  | 4 nM | 6 nM |  | 1320 nM | 50 nM | 
C[C@H](Nc1ncnc(N)c1C#N)c1cc2ncc(Cl)n2nc1-c1ccc(Cl)c(F)c1 [Compound 64] | 44.1% | 48 nM |  |  |  | > 333 nM | 
C[C@H](Nc1ncnc(N)c1C#N)c1cc2ncc(Cl)n2nc1-c1ccccc1C(F)(F)F [Compound 45] |  | 3 nM | 3 nM |  | 450 nM | 195 nM | 

Reference: US10208066B2, “Imidazopyridazine compounds and their use” (HUTCHISON MEDIPHARMA LIMITED, priority 2014, dated 2019)
